Consider 18 compounds from patent publication US9321776B2, “Isochromene derivatives as phoshoinositide 3-kinases inhibitors” (CHIESI FARMACEUTICI S.p.A., priority 2013, dated 2016).

Holding throughout (assay): PI3K enzyme inhibitory activity in the cell free assay (ADP-Glo Kinase Assay)
Holding throughout (type): biochemical

In assay [1] the target is T1, PI3Kα (Homo sapiens, UniProt P42336).
T1 construct: purchased Millipore Ltd (Billerica, Mass.)
The following applies: human recombinant PI3Kα, ATP 50 μM; read-out: PI3K alpha inhibition.

Assay [2] addresses T2, PI3Kβ (Homo sapiens, UniProt P42338).
T2 construct: purchased Millipore Ltd (Billerica, Mass.)
The following applies: human recombinant PI3Kβ, ATP 100 μM; read-out: PI3K beta inhibition.

The target of assay [3] is T3, PI3Kδ (Homo sapiens, UniProt O00329).
T3 construct: purchased Millipore Ltd (Billerica, Mass.)
T3 sequence (O00329 1-1044): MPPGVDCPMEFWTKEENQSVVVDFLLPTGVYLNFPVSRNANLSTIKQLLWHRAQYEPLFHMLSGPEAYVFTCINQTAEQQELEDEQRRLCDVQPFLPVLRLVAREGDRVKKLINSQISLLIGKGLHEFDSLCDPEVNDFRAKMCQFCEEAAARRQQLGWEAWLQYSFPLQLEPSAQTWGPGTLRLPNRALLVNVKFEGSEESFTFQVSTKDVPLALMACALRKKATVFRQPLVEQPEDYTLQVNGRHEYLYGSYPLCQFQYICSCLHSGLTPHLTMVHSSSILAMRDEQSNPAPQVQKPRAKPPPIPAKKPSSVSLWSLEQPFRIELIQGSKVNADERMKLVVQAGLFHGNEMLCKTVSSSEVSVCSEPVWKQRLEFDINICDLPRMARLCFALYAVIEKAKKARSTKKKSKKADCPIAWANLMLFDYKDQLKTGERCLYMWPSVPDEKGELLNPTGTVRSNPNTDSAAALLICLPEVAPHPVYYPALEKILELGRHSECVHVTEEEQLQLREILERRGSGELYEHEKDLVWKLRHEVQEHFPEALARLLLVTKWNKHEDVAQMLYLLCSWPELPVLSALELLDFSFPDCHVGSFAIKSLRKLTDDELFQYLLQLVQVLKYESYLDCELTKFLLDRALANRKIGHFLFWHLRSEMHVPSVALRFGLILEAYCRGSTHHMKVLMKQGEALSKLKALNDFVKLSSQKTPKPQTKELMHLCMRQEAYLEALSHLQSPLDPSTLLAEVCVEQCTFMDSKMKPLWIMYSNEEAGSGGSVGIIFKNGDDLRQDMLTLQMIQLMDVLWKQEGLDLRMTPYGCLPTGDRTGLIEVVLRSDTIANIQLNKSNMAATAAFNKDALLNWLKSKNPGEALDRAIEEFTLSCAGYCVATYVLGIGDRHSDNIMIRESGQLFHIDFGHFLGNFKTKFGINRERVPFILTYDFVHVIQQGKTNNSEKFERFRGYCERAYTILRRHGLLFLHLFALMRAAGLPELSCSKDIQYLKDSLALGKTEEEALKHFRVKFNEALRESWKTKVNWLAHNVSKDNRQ
To be noted: human recombinant PI3Kδ, ATP 80 μM; read-out: PI3K delta inhibition.

For assay [4], the target named is T4, PI3Kγ (Homo sapiens, UniProt P48736).
T4 construct: purchased Millipore Ltd (Billerica, Mass.)
The following applies: human recombinant PI3Kγ, ATP 30 μM; read-out: PI3K gamma inhibition.

Structures can show the parent of a compound that is named as a salt. Some results are limits rather than exact numbers.

T2 sequence (P42338 whole entry): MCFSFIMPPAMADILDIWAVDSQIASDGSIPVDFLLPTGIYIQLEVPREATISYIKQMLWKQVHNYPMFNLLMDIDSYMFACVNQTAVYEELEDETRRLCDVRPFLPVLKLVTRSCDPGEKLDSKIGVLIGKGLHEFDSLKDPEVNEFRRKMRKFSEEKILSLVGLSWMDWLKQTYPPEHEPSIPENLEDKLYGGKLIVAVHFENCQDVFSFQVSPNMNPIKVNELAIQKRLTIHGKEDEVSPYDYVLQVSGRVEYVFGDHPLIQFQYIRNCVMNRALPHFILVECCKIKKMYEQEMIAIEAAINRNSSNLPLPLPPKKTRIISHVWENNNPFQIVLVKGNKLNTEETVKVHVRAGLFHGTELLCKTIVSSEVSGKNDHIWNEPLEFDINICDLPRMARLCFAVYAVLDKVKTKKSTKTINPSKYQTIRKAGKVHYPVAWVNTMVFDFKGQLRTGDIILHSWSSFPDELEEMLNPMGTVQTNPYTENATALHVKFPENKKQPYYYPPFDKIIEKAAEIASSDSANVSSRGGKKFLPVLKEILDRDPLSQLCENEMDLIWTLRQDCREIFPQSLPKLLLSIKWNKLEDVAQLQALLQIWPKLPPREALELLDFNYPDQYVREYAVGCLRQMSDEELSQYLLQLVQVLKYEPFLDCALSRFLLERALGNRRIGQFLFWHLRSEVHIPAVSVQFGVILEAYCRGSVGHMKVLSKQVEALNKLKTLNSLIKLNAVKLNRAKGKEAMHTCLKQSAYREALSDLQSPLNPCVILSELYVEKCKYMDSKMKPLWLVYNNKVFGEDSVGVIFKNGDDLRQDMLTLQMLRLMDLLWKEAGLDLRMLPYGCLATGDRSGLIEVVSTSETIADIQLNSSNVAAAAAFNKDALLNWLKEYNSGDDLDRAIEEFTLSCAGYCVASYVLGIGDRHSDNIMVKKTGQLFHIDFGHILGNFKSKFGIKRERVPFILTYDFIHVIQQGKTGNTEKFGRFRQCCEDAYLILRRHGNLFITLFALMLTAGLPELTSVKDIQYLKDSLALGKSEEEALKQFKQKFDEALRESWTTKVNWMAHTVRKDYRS
T4 sequence (P48736 whole entry): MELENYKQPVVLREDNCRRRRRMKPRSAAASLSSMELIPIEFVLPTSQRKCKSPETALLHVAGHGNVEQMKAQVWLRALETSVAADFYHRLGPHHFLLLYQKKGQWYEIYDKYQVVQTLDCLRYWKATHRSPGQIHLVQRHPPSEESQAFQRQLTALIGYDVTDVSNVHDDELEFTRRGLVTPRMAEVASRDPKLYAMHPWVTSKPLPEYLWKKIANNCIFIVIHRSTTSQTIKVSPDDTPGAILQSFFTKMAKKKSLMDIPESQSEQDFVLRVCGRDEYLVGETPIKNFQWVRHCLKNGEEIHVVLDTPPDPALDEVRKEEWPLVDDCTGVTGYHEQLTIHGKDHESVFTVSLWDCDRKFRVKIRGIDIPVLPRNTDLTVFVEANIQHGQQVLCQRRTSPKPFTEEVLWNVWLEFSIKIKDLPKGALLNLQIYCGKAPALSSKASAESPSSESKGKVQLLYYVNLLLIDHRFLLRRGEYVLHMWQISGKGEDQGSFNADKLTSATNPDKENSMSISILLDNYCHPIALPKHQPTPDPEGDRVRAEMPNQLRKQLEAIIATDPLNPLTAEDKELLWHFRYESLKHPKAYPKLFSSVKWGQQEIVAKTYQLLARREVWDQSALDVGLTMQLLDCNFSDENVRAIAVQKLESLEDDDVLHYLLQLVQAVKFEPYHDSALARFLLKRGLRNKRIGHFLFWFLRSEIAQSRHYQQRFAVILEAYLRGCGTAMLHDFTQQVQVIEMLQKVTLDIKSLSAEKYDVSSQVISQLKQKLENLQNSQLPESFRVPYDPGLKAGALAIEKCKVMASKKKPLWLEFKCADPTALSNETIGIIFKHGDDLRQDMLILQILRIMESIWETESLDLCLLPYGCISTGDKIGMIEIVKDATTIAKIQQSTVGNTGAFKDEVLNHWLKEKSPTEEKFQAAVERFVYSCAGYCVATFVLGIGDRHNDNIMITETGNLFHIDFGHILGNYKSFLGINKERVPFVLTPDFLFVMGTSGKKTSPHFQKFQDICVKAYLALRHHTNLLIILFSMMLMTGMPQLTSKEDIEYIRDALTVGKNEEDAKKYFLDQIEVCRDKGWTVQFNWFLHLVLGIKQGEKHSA
T1 sequence (P42336 whole entry): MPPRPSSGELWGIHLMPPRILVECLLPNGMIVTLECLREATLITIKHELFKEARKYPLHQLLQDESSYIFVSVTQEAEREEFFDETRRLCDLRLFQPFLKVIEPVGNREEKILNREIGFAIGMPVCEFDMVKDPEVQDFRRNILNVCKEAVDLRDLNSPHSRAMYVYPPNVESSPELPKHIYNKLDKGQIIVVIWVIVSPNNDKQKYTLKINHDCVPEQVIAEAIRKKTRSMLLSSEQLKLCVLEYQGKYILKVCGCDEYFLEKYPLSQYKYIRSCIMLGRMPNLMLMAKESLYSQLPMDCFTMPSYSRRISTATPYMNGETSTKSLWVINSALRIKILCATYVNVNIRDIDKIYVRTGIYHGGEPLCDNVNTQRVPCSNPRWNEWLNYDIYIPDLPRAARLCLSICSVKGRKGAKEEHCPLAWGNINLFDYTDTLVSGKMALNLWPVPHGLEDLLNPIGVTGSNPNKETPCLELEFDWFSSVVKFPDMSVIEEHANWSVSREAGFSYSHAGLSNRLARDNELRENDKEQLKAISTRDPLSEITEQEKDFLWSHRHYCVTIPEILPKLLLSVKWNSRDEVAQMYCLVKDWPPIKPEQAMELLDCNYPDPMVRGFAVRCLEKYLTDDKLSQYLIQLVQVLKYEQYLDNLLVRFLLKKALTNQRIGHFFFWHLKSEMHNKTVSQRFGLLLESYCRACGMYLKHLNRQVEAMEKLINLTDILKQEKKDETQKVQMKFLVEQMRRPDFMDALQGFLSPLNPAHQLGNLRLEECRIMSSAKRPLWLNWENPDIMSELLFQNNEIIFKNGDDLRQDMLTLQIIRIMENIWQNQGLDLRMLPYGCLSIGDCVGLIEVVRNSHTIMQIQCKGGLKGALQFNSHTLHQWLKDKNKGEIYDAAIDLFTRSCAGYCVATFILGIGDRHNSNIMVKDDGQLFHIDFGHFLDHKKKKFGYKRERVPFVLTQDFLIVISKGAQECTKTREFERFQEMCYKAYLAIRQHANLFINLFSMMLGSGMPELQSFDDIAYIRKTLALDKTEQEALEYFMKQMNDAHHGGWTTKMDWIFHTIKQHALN

As for `CC(c1oc(=O)c2ccccc2c1-c1ccc(CN2CCCCC2)s1)n1nc(-c2cc(O)cc(F)c2)c2c(N)ncnc21` (stereo not drawn) [Example 68, 3-(1-(4-amino-3-(3-fluoro-5-hydroxyphenyl)-1H-pyrazolo[3,4-d]pyrimidin-1-yl)ethyl)-4-(5-(piperidin-1-ylmethyl)thiophen-2-yl)-1H-isochromen-1-one hydrochloride], the IC50 is 10 to 1000 nM in assay [1], 10 to 1000 nM in assay [2], < 10 nM in assay [3] and 10 to 1000 nM in assay [4].

Take `CC(c1oc(=O)c2ccccc2c1-c1cccc(C(=O)NCCN(C)C)c1)n1nc(-c2cc(O)cc(F)c2)c2c(N)ncnc21` (stereo not drawn) [Example 70, 3-(3-(1-(4-amino-3-(3-fluoro-5-hydroxyphenyl)-1H-pyrazolo[3,4-d]pyrimidin-1-yl)ethyl)-1-oxo-1H-isochromen-4-yl)-N-(2-(dimethylamino)ethyl)benzamide hydrochloride]: the IC50 in assay [1] is > 1000 nM; in assay [2], 10 to 1000 nM; in assay [3], < 10 nM; in assay [4], 10 to 1000 nM.

For the compound `CC(=O)N1CC=C(c2c(C(C)n3nc(-c4cncc(O)c4)c4c(N)ncnc43)oc(=O)c3ccccc23)CC1` (stereo not drawn) [Example 71, 4-(1-acetyl-1,2,3,6-tetrahydropyridin-4-yl)-3-(1-(4-amino-3-(5-hydroxypyridin-3-yl)-1H-pyrazolo[3,4-d]pyrimidin-1-yl)ethyl)-1H-isochromen-1-one], the IC50 in assay [1] is 10 to 1000 nM; in assay [2], 10 to 1000 nM; in assay [3], < 10 nM; in assay [4], 10 to 1000 nM.

As to `CC(=O)N1CC=C(c2c(C(C)n3nc(-c4cc(O)cc(F)c4)c4c(N)ncnc43)oc(=O)c3ccccc23)CC1` (stereo not drawn) [Example 72, 4-(1-acetyl-1,2,3,6-tetrahydropyridin-4-yl)-3-(1-(4-amino-3-(3-fluoro-5-hydroxyphenyl)-1H-pyrazolo[3,4-d]pyrimidin-1-yl)ethyl)-1H-isochromen-1-one], the IC50 is 10 to 1000 nM in assay [1], 10 to 1000 nM in assay [2], < 10 nM in assay [3] and 10 to 1000 nM in assay [4].

In the case of `CC(c1oc(=O)c2ccccc2c1C1=CC2CCC(C1)N2C)n1nc(-c2cc(O)cc(F)c2)c2c(N)ncnc21` (stereo not drawn) [Example 92, 3-(1-(4-amino-3-(3-fluoro-5-hydroxyphenyl)-1H-pyrazolo[3,4-d]pyrimidin-1-yl)ethyl)-4-(8-methyl-8-azabicyclo[3.2.1]oct-2-en-3-yl)-1H-isochromen-1-one hydrochloride], the IC50 in assay [1] is 10 to 1000 nM; in assay [2], 10 to 1000 nM; in assay [3], 10 to 1000 nM; in assay [4], > 1000 nM.

Take `Cc1ncc(-c2nn(C(C)c3oc(=O)c4ccccc4c3-c3ccccc3)c3ncnc(N)c23)cc1O` (stereo not drawn) [Example 99, 3-(1-(4-amino-3-(5-hydroxy-6-methylpyridin-3-yl)-1H-pyrazolo[3,4-d]pyrimidin-1-yl)ethyl)-4-phenyl-1H-isochromen-1-one]: the IC50 is 10 to 1000 nM in assay [1], 10 to 1000 nM in assay [2], < 10 nM in assay [3] and 10 to 1000 nM in assay [4].

In the case of `CC(c1oc(=O)c2ccccc2c1C1=CCC(N)CC1)n1nc(-c2cc(O)cc(F)c2)c2c(N)ncnc21` (stereo not drawn) [Example 103, 3-(1-(4-amino-3-(3-fluoro-5-hydroxyphenyl)-1H-pyrazolo[3,4-d]pyrimidin-1-yl)ethyl)-4-(4-aminocyclohex-1-en-1-yl)-1H-isochromen-1-one hydrochloride], the IC50 in assay [1] was 10 to 1000 nM; in assay [2] it was 10 to 1000 nM; in assay [3], < 10 nM; in assay [4], > 1000 nM.

As for `CC(NC(=O)c1c(N)nn2cccnc12)c1oc(=O)c2ccccc2c1-c1ccccc1` (stereo not drawn) [Example 110, 2-amino-N-(1-(1-oxo-4-phenyl-1H-isochromen-3-yl)ethyl)pyrazolo[1,5-a]pyrimidine-3-carboxamide], the IC50 in assay [1], in assay [2], in assay [3] and in assay [4] was 10 to 1000 nM in each case.

As to `CC(Nc1ncnc2[nH]cnc12)c1oc(=O)c2ccccc2c1-c1cncs1` (stereo not drawn) [Example 117, 3-(1-(9H-purin-6-ylamino)ethyl)-4-(thiazol-5-yl)-1H-isochromen-1-one], the IC50 in assay [1] is 10 to 1000 nM; in assay [2], > 1000 nM; in assay [3] it was < 10 nM; in assay [4], 10 to 1000 nM.

Take `CC(c1oc(=O)c2ccccc2c1-c1ccccc1)n1nc2ncnc(N)c2c1-c1cc(O)cc(F)c1` (stereo not drawn) [Example 118, 3-(1-(4-amino-3-(3-fluoro-5-hydroxyphenyl)-2H-pyrazolo[3,4-d]pyrimidin-2-yl)ethyl)-4-phenyl-1H-isochromen-1-one]: the IC50 was 10 to 1000 nM in assay [1], > 1000 nM in assay [2], 10 to 1000 nM in assay [3] and > 1000 nM in assay [4].

As for `CC(c1oc(=O)c2ccccc2c1-c1cccc(N(C)C)c1)n1nc(-c2cc(O)cc(F)c2)c2c(N)ncnc21` (stereo not drawn) [Example 119, 3-(1-(4-amino-3-(3-fluoro-5-hydroxyphenyl)-1H-pyrazolo[3,4-d]pyrimidin-1-yl)ethyl)-4-(3-(dimethylamino)phenyl)-1H-isochromen-1-one], the IC50 in assay [1] was > 1000 nM; in assay [2] it was > 1000 nM; in assay [3], 10 to 1000 nM; in assay [4] it was 10 to 1000 nM.

As to `CC(c1oc(=O)c2ccccc2c1-c1cncs1)n1nc(-c2cc(O)cc(F)c2)c2c(N)ncnc21` (stereo not drawn) [Example 120, 3-(1-(4-amino-3-(3-fluoro-5-hydroxyphenyl)-1H-pyrazolo[3,4-d]pyrimidin-1-yl)ethyl)-4-(thiazol-5-yl)-1H-isochromen-1-one], the IC50 was 10 to 1000 nM in assay [1], 10 to 1000 nM in assay [2], < 10 nM in assay [3] and 10 to 1000 nM in assay [4].

Take `CC(c1oc(=O)c2ccccc2c1-c1cnc(N)s1)n1nc(-c2cc(O)cc(F)c2)c2c(N)ncnc21` (stereo not drawn) [Example 121, 3-(1-(4-amino-3-(3-fluoro-5-hydroxyphenyl)-1H-pyrazolo[3,4-d]pyrimidin-1-yl)ethyl)-4-(2-aminothiazol-5-yl)-1H-isochromen-1-one hydrochloride]: the IC50 in assay [1] is > 1000 nM; in assay [2], 10 to 1000 nM; in assay [3], 10 to 1000 nM; in assay [4] it was 10 to 1000 nM.

As for `CC(Nc1ncnc2[nH]cnc12)c1oc(=O)c2ccccc2c1-c1cn[nH]c1` (stereo not drawn) [Example 122, 3-(1-(9H-purin-6-ylamino)ethyl)-4-(1H-pyrazol-4-yl)-1H-isochromen-1-one], the IC50 in assay [1] is 10 to 1000 nM; in assay [2], 10 to 1000 nM; in assay [3], < 10 nM; in assay [4] it was 10 to 1000 nM.

Regarding `CC(Nc1ncnc(N)c1C#N)c1oc(=O)c2ccccc2c1-c1cn[nH]c1` (stereo not drawn) [Example 123, 4-amino-6-((1-(1-oxo-4-(1H-pyrazol-4-yl)-1H-isochromen-3-yl)ethyl)amino)pyrimidine-5-carbonitrile hydrochloride], the IC50 in assay [1], in assay [2], in assay [3] and in assay [4] was 10 to 1000 nM throughout.

Turning to `CC(Nc1ncnc2[nH]cnc12)c1oc(=O)c2ccccc2c1-c1cnc(N)nc1` (stereo not drawn) [Example 124, 3-(1-(9H-purin-6-ylamino)ethyl)-4-(2-aminopyrimidin-5-yl)-1H-isochromen-1-one], the IC50 was > 1000 nM in assay [1], > 1000 nM in assay [2], 10 to 1000 nM in assay [3] and > 1000 nM in assay [4].

As to `Nc1ncnc2c1c(-c1cc(O)cc(F)c1)nn2CC1=C(c2ccccc2)c2ccccc2CO1` [Example 128, 3-(4-amino-1-((4-phenyl-1H-isochromen-3-yl)methyl)-1H-pyrazolo[3,4-d]pyrimidin-3-yl)-5-fluorophenol], the IC50 was > 1000 nM in assay [1], 10 to 1000 nM in assay [2], 10 to 1000 nM in assay [3] and 10 to 1000 nM in assay [4].

As for `Nc1ncnc2c1c(-c1cncc(O)c1)nn2CC1=C(c2ccccc2)c2ccccc2CO1` [Example 129, 5-(4-amino-1-((4-phenyl-1H-isochromen-3-yl)methyl)-1H-pyrazolo[3,4-d]pyrimidin-3-yl)pyridin-3-ol], the IC50 was 10 to 1000 nM in assay [1], 10 to 1000 nM in assay [2], 10 to 1000 nM in assay [3] and > 1000 nM in assay [4].
